ChEMBL document CHEMBL1132530, “Picking the S1, S1' and S2' pockets of matrix metalloproteinases. A niche for potent acyclic sulfonamide inhibitors” (Bioorg Med Chem Lett, 1999)

Target: T1, Interstitial collagenase (Homo sapiens, UniProt P03956)
T1 sequence (P03956 whole entry): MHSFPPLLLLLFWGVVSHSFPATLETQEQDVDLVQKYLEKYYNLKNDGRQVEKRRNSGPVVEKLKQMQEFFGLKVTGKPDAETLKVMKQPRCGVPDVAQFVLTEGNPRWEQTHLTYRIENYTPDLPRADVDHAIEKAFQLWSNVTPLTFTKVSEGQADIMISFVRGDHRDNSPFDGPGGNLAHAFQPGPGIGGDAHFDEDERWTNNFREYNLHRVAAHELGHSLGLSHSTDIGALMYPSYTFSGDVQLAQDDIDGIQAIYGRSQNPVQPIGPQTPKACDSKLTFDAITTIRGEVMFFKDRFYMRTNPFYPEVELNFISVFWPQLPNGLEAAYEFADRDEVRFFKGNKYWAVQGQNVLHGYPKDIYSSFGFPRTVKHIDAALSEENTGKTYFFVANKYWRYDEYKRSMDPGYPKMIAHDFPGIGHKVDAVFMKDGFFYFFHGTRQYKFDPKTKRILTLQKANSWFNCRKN
Experiment: Inhibition of matrix metalloprotease-1

IC50 [nM]	SMILES
384	CC[C@@H](C(=O)NO)N(CC(C)C)S(=O)(=O)c1ccc(OC)cc1
104	COc1ccc(S(=O)(=O)N(CC(C)C)[C@@H](CCSCc2ccccc2)C(=O)NO)cc1
156	CSCC[C@@H](C(=O)NO)N(CC(C)C)S(=O)(=O)c1ccc(-c2ccccc2)cc1

Target: Stromelysin-1 (Homo sapiens, UniProt P08254)
Experiment: Inhibition of matrix metalloprotease-3

Chain of Stromelysin-1 (P08254 whole entry): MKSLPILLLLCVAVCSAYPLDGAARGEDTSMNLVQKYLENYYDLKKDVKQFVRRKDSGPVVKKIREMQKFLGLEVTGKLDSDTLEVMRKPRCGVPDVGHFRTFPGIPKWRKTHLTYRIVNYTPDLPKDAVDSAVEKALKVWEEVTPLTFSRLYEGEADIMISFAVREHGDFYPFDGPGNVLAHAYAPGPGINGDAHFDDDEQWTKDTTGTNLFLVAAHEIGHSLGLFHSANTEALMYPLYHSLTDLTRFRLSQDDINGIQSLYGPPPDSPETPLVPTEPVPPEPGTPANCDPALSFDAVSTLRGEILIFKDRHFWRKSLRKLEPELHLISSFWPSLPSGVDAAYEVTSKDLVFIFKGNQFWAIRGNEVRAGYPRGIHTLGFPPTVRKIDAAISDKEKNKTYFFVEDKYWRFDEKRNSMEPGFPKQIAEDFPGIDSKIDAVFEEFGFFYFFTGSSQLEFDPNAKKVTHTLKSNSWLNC

SMILES	IC50 [nM]
CC[C@@H](C(=O)NO)N(CC(C)C)S(=O)(=O)c1ccc(OC)cc1	45
COc1ccc(S(=O)(=O)N(CC(C)C)[C@@H](CCSCc2ccccc2)C(=O)NO)cc1	0.7
CC(C)CN([C@@H](CCSCc1ccccc1)C(=O)NO)S(=O)(=O)c1ccc(-c2ccccc2)cc1	90
CSCC[C@@H](C(=O)NO)N(CC(C)C)S(=O)(=O)c1ccc(-c2ccccc2)cc1	37

Other lines, results leading:

IC50 [nM]	SMILES
29	COc1ccc(S(=O)(=O)N(CC(C)C)[C@@H](CCSCc2ccc(OCc3ccccc3)cc2)C(=O)NO)cc1
20	COc1ccc(S(=O)(=O)N(CC(C)C)[C@@H](CCSCc2ccc(-c3ccccc3)cc2)C(=O)NO)cc1
3.7	COc1ccc(S(=O)(=O)N(CC(=O)NC(c2ccccc2)c2ccccc2)[C@H](CCSCc2ccccc2)C(=O)NO)cc1

Target: Matrix metalloproteinase-9 (Mus musculus, UniProt P41245)
Experiment: Inhibitory concentration required against matrix metalloprotease-9 (MMP-9 gelatinase B)

Chain of Matrix metalloproteinase-9 (Mus musculus, UniProt P41245) (P41245 whole entry): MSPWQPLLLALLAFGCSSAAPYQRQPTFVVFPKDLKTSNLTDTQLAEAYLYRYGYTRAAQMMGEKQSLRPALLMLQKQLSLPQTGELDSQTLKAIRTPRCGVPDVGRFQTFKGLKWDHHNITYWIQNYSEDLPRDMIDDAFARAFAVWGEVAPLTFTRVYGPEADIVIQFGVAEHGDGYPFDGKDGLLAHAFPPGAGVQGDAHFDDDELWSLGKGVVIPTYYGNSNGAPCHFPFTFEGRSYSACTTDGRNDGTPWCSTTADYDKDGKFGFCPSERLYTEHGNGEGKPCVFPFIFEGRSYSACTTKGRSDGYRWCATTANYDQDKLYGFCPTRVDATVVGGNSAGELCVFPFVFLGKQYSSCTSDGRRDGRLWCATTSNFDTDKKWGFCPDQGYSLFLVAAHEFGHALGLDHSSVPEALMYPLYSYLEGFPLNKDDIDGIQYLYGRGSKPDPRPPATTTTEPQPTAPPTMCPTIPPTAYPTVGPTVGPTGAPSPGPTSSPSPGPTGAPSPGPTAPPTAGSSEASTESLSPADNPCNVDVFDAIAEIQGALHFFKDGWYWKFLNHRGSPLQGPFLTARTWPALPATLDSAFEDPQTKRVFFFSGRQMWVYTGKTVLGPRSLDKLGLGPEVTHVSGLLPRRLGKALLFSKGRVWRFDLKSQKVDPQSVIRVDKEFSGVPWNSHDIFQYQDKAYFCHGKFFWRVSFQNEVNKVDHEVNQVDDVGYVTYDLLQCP

IC50 [nM]	SMILES
10	COc1ccc(S(=O)(=O)N(Cc2cccnc2)[C@@H](C(=O)NO)C(C)C)cc1 [CGS-27023A]
0.5	COc1ccc(S(=O)(=O)N(CC(=O)NC(c2ccccc2)c2ccccc2)[C@H](CCSCc2ccccc2)C(=O)NO)cc1

SMILES	IC50 [nM]
CC(C)CN([C@@H](CCSCc1ccccc1)C(=O)NO)S(=O)(=O)c1ccc(-c2ccccc2)cc1	2.5

Target: Collagenase 3 (Homo sapiens, UniProt P45452)
Experiment: Inhibition of matrix metalloprotease-13

IC50 [nM]	SMILES
96	CC[C@@H](C(=O)NO)N(CC(C)C)S(=O)(=O)c1ccc(OC)cc1
12	COc1ccc(S(=O)(=O)N(CC(C)C)[C@@H](CCSCc2ccccc2)C(=O)NO)cc1
4.5	COc1ccc(S(=O)(=O)N(CC(=O)NC(c2ccccc2)c2ccccc2)[C@H](CCSCc2ccccc2)C(=O)NO)cc1
3	CSCC[C@@H](C(=O)NO)N(CC(C)C)S(=O)(=O)c1ccc(-c2ccccc2)cc1

SMILES	IC50 [nM]
CC(C)CN([C@@H](CCSCc1ccccc1)C(=O)NO)S(=O)(=O)c1ccc(-c2ccccc2)cc1	3.8

Target: 72 kDa type IV collagenase (Homo sapiens, UniProt P08253)
Experiment: (§1) Inhibition of matrix metalloprotease-2

Chain of 72 kDa type IV collagenase (Homo sapiens, UniProt P08253) (P08253 whole entry): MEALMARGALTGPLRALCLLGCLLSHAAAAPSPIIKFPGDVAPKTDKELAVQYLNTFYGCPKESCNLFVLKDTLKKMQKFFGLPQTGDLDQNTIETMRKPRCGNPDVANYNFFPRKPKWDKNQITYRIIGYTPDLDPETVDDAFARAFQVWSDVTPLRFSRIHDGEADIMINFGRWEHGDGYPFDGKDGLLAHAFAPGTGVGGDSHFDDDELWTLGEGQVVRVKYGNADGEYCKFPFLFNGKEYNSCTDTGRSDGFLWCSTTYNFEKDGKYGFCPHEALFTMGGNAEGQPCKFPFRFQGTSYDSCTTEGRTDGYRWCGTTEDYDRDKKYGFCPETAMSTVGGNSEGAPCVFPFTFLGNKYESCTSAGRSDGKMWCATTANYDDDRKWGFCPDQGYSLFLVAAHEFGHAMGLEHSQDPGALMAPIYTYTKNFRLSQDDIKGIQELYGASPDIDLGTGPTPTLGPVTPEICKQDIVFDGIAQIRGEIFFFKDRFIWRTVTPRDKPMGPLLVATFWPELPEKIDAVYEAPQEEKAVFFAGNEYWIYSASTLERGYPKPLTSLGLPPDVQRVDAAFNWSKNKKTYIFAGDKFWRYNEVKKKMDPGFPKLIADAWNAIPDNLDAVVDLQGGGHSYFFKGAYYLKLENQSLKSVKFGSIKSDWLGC

IC50 [nM]	SMILES
53	CC[C@@H](C(=O)NO)N(CC(C)C)S(=O)(=O)c1ccc(OC)cc1
0.7	COc1ccc(S(=O)(=O)N(CC(C)C)[C@@H](CCSCc2ccccc2)C(=O)NO)cc1
30	COc1ccc(S(=O)(=O)N(CC(C)C)[C@@H](CCSCc2ccc(-c3ccccc3)cc2)C(=O)NO)cc1
0.7	CSCC[C@@H](C(=O)NO)N(CC(C)C)S(=O)(=O)c1ccc(-c2ccccc2)cc1

Target: 72 kDa type IV collagenase (Mus musculus, UniProt P33434)
Experiment: as §1

Chain of 72 kDa type IV collagenase (Mus musculus, UniProt P33434) (P33434 whole entry): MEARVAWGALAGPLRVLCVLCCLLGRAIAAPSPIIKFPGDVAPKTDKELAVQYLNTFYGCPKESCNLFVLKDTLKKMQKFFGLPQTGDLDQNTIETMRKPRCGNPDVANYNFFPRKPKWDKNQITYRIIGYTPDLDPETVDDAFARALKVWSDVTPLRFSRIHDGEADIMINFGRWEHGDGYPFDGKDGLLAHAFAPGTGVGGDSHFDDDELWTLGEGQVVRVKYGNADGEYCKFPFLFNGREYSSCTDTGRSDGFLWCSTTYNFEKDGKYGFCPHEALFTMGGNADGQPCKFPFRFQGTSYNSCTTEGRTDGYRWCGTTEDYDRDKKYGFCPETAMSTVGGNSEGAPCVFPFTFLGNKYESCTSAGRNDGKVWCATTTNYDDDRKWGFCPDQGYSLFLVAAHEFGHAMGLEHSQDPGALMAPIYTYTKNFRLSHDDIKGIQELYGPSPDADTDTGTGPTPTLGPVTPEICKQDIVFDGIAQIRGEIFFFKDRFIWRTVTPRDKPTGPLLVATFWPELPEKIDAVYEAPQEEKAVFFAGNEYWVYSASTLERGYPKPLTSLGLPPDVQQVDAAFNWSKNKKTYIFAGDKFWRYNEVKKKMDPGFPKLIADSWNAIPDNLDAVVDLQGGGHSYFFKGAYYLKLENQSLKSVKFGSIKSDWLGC

IC50 [nM]	SMILES
15	COc1ccc(S(=O)(=O)N(Cc2cccnc2)[C@@H](C(=O)NO)C(C)C)cc1 [CGS-27023A]
2.3	COc1ccc(S(=O)(=O)N(CC(=O)NC(c2ccccc2)c2ccccc2)[C@H](CCSCc2ccccc2)C(=O)NO)cc1

SMILES	IC50 [nM]
CC(C)CN([C@@H](CCSCc1ccccc1)C(=O)NO)S(=O)(=O)c1ccc(-c2ccccc2)cc1	4.1

Target: Matrix metalloproteinase-9 (Homo sapiens, UniProt P14780)
Experiment: Inhibition of matrix metalloprotease-9

Chain of Matrix metalloproteinase-9 (Homo sapiens, UniProt P14780) (P14780 whole entry): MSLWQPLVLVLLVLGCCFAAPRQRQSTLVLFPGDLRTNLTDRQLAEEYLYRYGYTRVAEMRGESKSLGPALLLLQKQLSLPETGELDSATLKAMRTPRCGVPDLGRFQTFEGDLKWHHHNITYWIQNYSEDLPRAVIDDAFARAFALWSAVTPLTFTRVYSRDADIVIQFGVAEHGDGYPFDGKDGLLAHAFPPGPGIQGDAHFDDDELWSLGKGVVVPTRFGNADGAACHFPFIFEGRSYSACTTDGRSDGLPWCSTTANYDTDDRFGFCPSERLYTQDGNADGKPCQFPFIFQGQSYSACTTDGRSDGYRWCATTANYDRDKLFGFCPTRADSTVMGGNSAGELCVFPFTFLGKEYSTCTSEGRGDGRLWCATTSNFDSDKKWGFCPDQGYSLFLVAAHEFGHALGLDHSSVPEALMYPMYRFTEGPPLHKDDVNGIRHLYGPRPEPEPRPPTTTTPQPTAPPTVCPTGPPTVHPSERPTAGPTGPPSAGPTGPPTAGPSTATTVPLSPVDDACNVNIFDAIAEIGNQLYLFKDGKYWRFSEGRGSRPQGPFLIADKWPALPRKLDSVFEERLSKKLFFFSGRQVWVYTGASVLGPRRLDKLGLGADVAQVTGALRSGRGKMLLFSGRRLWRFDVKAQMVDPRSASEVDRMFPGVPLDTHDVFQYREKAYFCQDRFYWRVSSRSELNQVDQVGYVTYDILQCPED

SMILES	IC50 [nM]
CC[C@@H](C(=O)NO)N(CC(C)C)S(=O)(=O)c1ccc(OC)cc1	7
COc1ccc(S(=O)(=O)N(CC(C)C)[C@@H](CCSCc2ccccc2)C(=O)NO)cc1	2.5
CSCC[C@@H](C(=O)NO)N(CC(C)C)S(=O)(=O)c1ccc(-c2ccccc2)cc1	0.2

More lines, now with the values ahead:

IC50 [nM]	SMILES
8	COc1ccc(S(=O)(=O)N(CC(C)C)[C@@H](CCSCc2ccc(OCc3ccccc3)cc2)C(=O)NO)cc1
0.2	COc1ccc(S(=O)(=O)N(CC(C)C)[C@@H](CCSCc2ccc(-c3ccccc3)cc2)C(=O)NO)cc1
